Entries after “also recorded” stand apart in the source; their conditions may differ.
Columns and labels:
[1] = system: Dbh-/- embryos; settings: DOPS in the maternal drinking water; cited from earlier work
[2] = system: neonatal rat cardiomyocytes; assay: Beating rate measurements in cultured neonatal rat cardiomyocytes; assay type: cell-based; settings: for effect on beating rate, acute treatment: increasing concentrations, within seconds to 1-2 min after drug application, normal serum; for decrease in the beating rate: acute, spontaneously beating cultures after 7 d
Description: D) Preparation of rat neonatal cardiomyocyte cultures. […] The heart was immediately removed under aseptic conditions and placed in ice-cold sterile HBSS (no Ca^++ or Mg^++). Enzymatic and mechanical dissociation of cardiomyocytes was then performed using the Neonatal Cardiomyocyte Isolation System supplied by Worthington Biochemicals (Freehold, N.J., U.S.A.). The hearts were minced on ice and digested overnight at 4° C. with purified trypsin (10 μg/mL) in HBSS. On the following morning, the digested tissue was transferred to a 50-mL conical tube and purified soybean trypsin inhibitor (40 μg/mL) was added to terminate trypsinization. The tissue was oxygenated and warmed to 37° C. […] C. with intermittent gentle swirling. Mild trituration was then used to mechanically dissociate the digested tissue, and single-cell suspensions were obtained by filtering this digested material through 70 μm sterile mesh filters. The cells were collected by low-speed centrifugation. The supernatant was discarded and the cell pellet resuspended in DMEM (high glucose, Biofluids, Rockville, Md., U.S.A.) culture medium containing 10% defined iron-supplemented bovine calf serum (Hyclone Laboratories, Logan, Utah, U.S.A.), 2 mM glutamine, and gentamicin sulfate (50 μg/mL). In some experiments, the serum was pretreated with charcoal before adding it to the media (10% volume as above) to remove possible trace amounts of catecholamines that may have been present The cells were then “preplated” to remove fibroblasts, and the remaining cells counted and seeded onto multi-well culture plates at a density of 75,000 cells per cm^2. The media was changed every 2-3 d beginning the day after seeding. Bromodeoxyuridine (0.1 mM) was added to the culture media for the first 3 d to further minimize contamination from fibroblasts.
E) Beating rate measurements. Beating activity of cultured cardiomyocytes was measured by edge-detection using photodiode sensors attached to a monitor screen depicting beating cells viewed by videomicroscopy. […] The photodiode sensor signal was filtered with an 8-pole Bessel low-pass filter (Model 900CT, Frequency Devices, Inc., Havervill, Mass., U.S.A.) with a cutoff frequency of 1000 Hz, and relayed to a PC equipped with a National Instruments data acquisition board and LabView 4.0 processing software. Parallel outputs were also directed to a Gould TA550 chart recorder and an oscilloscope. Data were continuously acquired and stored to disk for later analysis. Drugs were added and immediately mixed in the media overlying the cells in each well. Predrug (baseline) measurements were performed first, and the indicated drug(s) were added as a 100× stock to the preexisting media on each well, and rapidly mixed. Beating rates were remeasured within 2-3 min after drug addition.
F) Data analysis. The number of beating rate measurements was typically obtained from different wells of multi-well plates (usually six wells per plate), seeded from the same preparation of myocytes. Measurements were obtained immediately before and after the addition of specified drugs. In the reserpine experiment, beating rate measurements were obtained at multiple time-points after drug administration. Each experiment was replicated at least twice using independently isolated cultures, and a representative result from each is shown. Unless otherwise indicated, all beating rate measurements were performed on cells that had been cultured for 7-9 d. All data are expressed as mean.+−.SEM. Statistical significance was assessed by one-way ANOVA, with p<0.05 required to reject the null hypothesis. Posthoc testing was performed using Bonferroni's correction for multiple comparisons.

N[C@H](C(=O)O)[C@H](O)c1ccc(O)c(O)c1 [DOPS]
rescue of Dbh-/- embryos that die of cardiovascular failure in utero [1]: rescued

CNC[C@H](O)c1cccc(O)c1 [L-phenylephrine]
reversal of prazosin-induced decrease in beating rate ([2]; L-phenylephrine at increasing concentrations, in presence of prazosin 1 μM, charcoal-stripped serum): dose-dependent reversal; also recorded: reversed

CNC[C@H](O)c1ccc(O)c(O)c1 [epinephrine]
rescue of timolol-suppressed beating rate in charcoal-stripped serum media ([2]; epinephrine 1 μM added in presence of timolol 10 μM): fully rescued; also recorded: full recovery of beating rate | duration of recovery of beating rate ([2]; epinephrine 1 μM in presence of timolol 10 μM, charcoal-stripped serum): 30 to 60 min

CC(C)(C)NC[C@H](O)COc1nsnc1N1CCOCC1 [timolol]
effect on beating rate, acute treatment [2]: significant concentration-dependent slowing in the beating rate | effect on beating activity in media with charcoal-stripped serum ([2]; timolol 10 μM, continuous, assessed at 24 and 72 h): strongly suppressed beating activity

COc1cc2nc(N3CCN(C(=O)c4ccco4)CC3)nc(N)c2cc1OC [prazosin]
decrease in the beating rate ([2]; 1 μM prazosin): ~25% | decrease in the beating rate ([2]; 10 μM prazosin): > 85% | effect on beating rate, acute treatment [2]: dose-dependent decreases in the beating rate | effect on beating rate in media with charcoal-stripped serum ([2]; prazosin 1 μM vs baseline control): significant decreases in beating rates; also recorded: significant reduction in the beating rate

COC(=O)[C@H]1[C@H]2C[C@@H]3c4[nH]c5cc(OC)ccc5c4CCN3C[C@H]2C[C@@H](OC(=O)c2cc(OC)c(OC)c(OC)c2)[C@@H]1OC [reserpine]
effect on beating rate, catecholamine depletion ([2]; increasing concentrations of reserpine, measured up to 8 h): Significant dose-dependent decreases in beating rates

NC[C@H](O)c1ccc(O)c(O)c1 [norepinephrine]
reversal of reserpine-induced decrease in beating rate ([2]; NE 1 μM, about 2 min after addition, after 8 h of reserpine 2.5 μM): largely reversed

Reference: patent US8614091B2, “PNMT as a novel marker for progenitor cells” (priority 2004, dated 2013)
